In patent publication US20140051665A1, “PROSTATE CANCER THERAPY WITH HSP90 INHIBITORY COMPOUNDS” (SYNTA PHARMACEUTICALS CORP., priority 2011, published 2014):
Like-named read-outs stand apart in the source and are kept apart here.

What was measured:
[1] = tested on: DU-145 prostate carcinoma cells; assay: alamarBlue cell viability assay, single agents and docetaxel combination; conditions: DU-145 cells, 72 hr
PC3 cells [2] = assay: Combination of AZD-7762 with ganetespib, killing of PC3 cells; type: cell-based, human
PC3 tumor xenografts = assay: In vivo prostate xenograft model; conditions: for % T/C: PC3 xenografts in nude mice, i.v.
Method: Eight-week-old female immunodeficient nude mice (Charles River Laboratories, Wilmington, Mass.) were maintained in a pathogen-free environment, and all in vivo procedures were approved by the Synta Pharmaceuticals Corp. Institutional Animal Care and Use Committee. PC3 tumor cells were subcutaneously implanted into nude mice. […] Tumor volumes (V) were calculated by caliper measurements of the width (W), length (L), and thickness (T) of each tumor using the formula: V=0.5236(LWT). Tumor growth inhibition was determined as described previously.

[3] = tested on: PCa cell lines (LNCaP, 22Rv1, PC-3, DU-145); assay: Summary of potency in PCa cell line panel versus 17-AAG; type: cell-based, human
Method: (§3) Cellular viability was assessed using the CellTiter-Glo Luminescent Cell Viability Assay (Promega, Madison, Wis., USA) according to the manufacturer's protocol. Twenty-four hours after plating at 5×10^3 cells/well in triplicate in 96-well plates, cells were dosed with graded concentrations of ganetespib or 17-AAG for 72 h. CellTiter-Glo was added (50% v/v) to the cells, and the plates incubated for 10 min prior to luminescent detection in a SpectraMax Plus 384 microplate reader (Molecular Devices, Sunnyvale, Calif., USA). Data were normalized to percent of control and IC50 values used to determine the sensitivity of each line.

[4] = tested on: LNCaP cells (AR, p-AKT/AKT, CDK1); assay: Western blot of Hsp90 client proteins, LNCaP; type: cell-based, human
Source text: (§1) Prostate cancer cell lines were lysed in RIPA buffer (Cell Signaling Technology, Beverly, Mass. USA) and HeLa lysed by four rounds of freeze/thawing using 1× Reporter Lysis Buffer (Promega, Madison, Wis., USA) containing 0.4 M NaCl. Lysates were clarified by centrifugation and equal amounts of protein resolved by SDSPAGE before transfer to nitrocellulose membranes. Membranes were blocked with 5% skim milk in TBS with 0.5% Tween and immunoblotted with indicated antibodies. Antigen-antibody complexes were visualized using an Odyssey system (LI-COR, Lincoln, Nebr., USA).

[5] = tested on: AR-specific transcriptional activity in LNCaP cells; assay: Quantitative RT-PCR of AR-directed genes PSA and TMPRSS2; type: cell-based, human; conditions: 250 nM ganetespib or 1 μM geldanamycin, 24 h, 10 nM R1881
Method: LNCaP cells were cultured in charcoal-stripped medium for 24 h and then treated with 250 nM ganetespib, 1 μM geldanamycin, or vehicle for 24 h in the absence or presence of 10 nM methyltrienolone (R1881). RNA was prepared from the LNCaP cells post-treatment using TRIzol reagent (Invitrogen, Grand Island, N.Y., USA). Previously reported prostate specific antigen (PSA), transmembrane protease, serine 2 (TMPRSS2), and 18S primer sets were used for target gene expression and were analyzed using SYBR green PCR Master mix in an ABI 7500 Fast sequence detection system. See, e.g., Agoulnik et al (2006), Androgens modulate expression of transcription intermediary factor 2, an androgen receptor coactivator whose expression level correlates with early biochemical recurrence in prostate cancer. Cancer Res 66 10594-10602. PSA and TMPRSS2 mRNA levels were normalized to 18S mRNA values.

[6] = tested on: 22Rv1 cells (full-length AR, p-AKT/AKT, PARP); assay: Western blot, 22Rv1; type: cell-based, human; conditions: 22Rv1, 24 h
Source text: as §1

full length AR = assay: Expression of transfected full length AR in HeLa, immunoblot; type: cell-based; conditions: 24 h, GA or 250 nM ganetespib, 10 nM R1881
Source text: HeLa cells were transiently transfected using a poly-L-lysine coupled adenoviral-mediated DNA transfer technique as previously described. […] The plasmid constructs used were pCR3.1-AR (encoding for full length AR) and pCR3.1-V7 (encoding for the V7 truncated AR isoform and which was a gift from Manjula Nakka and William Krause, Baylor College of Medicine).

full-length AR activity = assay: GRE-luciferase reporter assay in HeLa, full-length AR; type: cell-based
Method: HeLa cells were transiently transfected using a poly-L-lysine coupled adenoviral-mediated DNA transfer technique as previously described. […] The plasmid constructs used were pCR3.1-AR (encoding for full length AR) and pCR3.1-V7 (encoding for the V7 truncated AR isoform and which was a gift from Manjula Nakka and William Krause, Baylor College of Medicine). […] To determine the effect of Hsp90 inhibitors on AR and variant activity, HeLa cells were transiently transfected with 250 ng of GRE-luciferase reporter, 30 ng of pCR3.1 β-galactosidase, 3 ng of pCR3.1-AR, or 0.03 ng of pCR3.1-V7 and treated as above. Luciferase and β-galactosidase activities were measured and luciferase levels normalized to β-galactosidase levels as described previously.

[7] = tested on: DU145 cells (EGFR, STAT3, IGF-IR); assay: Western blot of Hsp90 client proteins, DU145; type: cell-based, human; conditions: for exposure required for significant reductions in p-EGFR expression: DU145
Source text: as §1

DU145 cells [8] = assay: Annexin V apoptosis assay by flow cytometry; type: cell-based, human; conditions: DU145, 24 h, escalating doses
Method: (§2) For cell cycle analysis, PC3 and DU145 cells were seeded overnight at 0.3×10^6 cells/5 mL in a 6-well plate and then exposed to increasing concentrations of ganetespib (0-500 nM) for 24 h. Cells were harvested and stained with propidium iodide using the BD Cycle TEST PLUS Reagent Kit (BD Biosciences, San Jose, Calif., USA) according to the manufacturer's instructions. Twenty thousand cells were analyzed for their DNA content using a FACS Caliber cytometer (BD Biosciences, Billerica, Mass., USA). For the apoptosis assay in the DU145 cell line, cells were treated with ganetespib (10, 100 or 500 nM), 17-AAG (500 or 1000 nM) or control (DMSO) for 24 h. Following treatment cells were harvested and stained using a fluorescein-conjugated anti-Annexin V antibody (BD Biosciences) and apoptosis assessed by flow cytometry.

DU145 cells [9] = assay: Cell cycle analysis by flow cytometry, DU145; type: cell-based, human; conditions: DU145, 0-500 nM, 24 h
Method: as §2

PC3 cells [10] = assay: Cell cycle analysis by flow cytometry, PC3; type: cell-based, human; conditions: PC3, 0-500 nM, 24 h
Method: as §2

PC3 cells (IGF-1R) = assay: Western blot of Hsp90 client proteins, PC3; type: cell-based, human
Source text: as §1

V7 truncated AR isoform = assay: Expression of transfected V7 truncated AR in HeLa, immunoblot; type: cell-based; conditions: 24 h, 1 mM GA or 250 nM ganetespib
constitutive V7 activity = assay: GRE-luciferase reporter assay in HeLa, V7 variant; type: cell-based
Source text: HeLa cells were transiently transfected using a poly-L-lysine coupled adenoviral-mediated DNA transfer technique as previously described. See, e.g., Nazareth et al (1996), Activation of the human androgen receptor through a protein kinase A signaling pathway. J Biol Chem 271 19900-19907. The plasmid constructs used were pCR3.1-AR (encoding for full length AR) and pCR3.1-V7 (encoding for the V7 truncated AR isoform and which was a gift from Manjula Nakka and William Krause, Baylor College of Medicine). For the expression study, HeLa cells were transfected with 3 ng of pCR3.1-AR or 0.5 ng of pCR3.1-V7 for 24 h. Cells were treated with R1881 (10 nM), GA (1 μM), and/or STA9090 (250 nM) or vehicle (ethanol and DMSO) for 24 hours prior to lysis and immunoblotting. To determine the effect of Hsp90 inhibitors on AR and variant activity, HeLa cells were transiently transfected with 250 ng of GRE-luciferase reporter, 30 ng of pCR3.1 β-galactosidase, 3 ng of pCR3.1-AR, or 0.03 ng of pCR3.1-V7 and treated as above. Luciferase and β-galactosidase activities were measured and luciferase levels normalized to β-galactosidase levels as described previously. See, e.g., Agoulnik et al (2003), Repressors of androgen and progesterone receptor action. J Biol Chem 278 31136-31148.

[11] = weekly dosing regimen; cited from earlier work
PC3 cells [12] = assay: CellTiter-Glo cell viability assay, PC3; conditions: read-out: cytotoxicity IC50
Method: (§4) The LNCaP, VCaP, 22Rv1, DU145 and PC3 human prostate cancer cell lines and HeLa cells were all purchased from the American Type Culture Collection (Manassas, Va., USA). Cells were maintained and cultured according to standard techniques at 37° C. in 5% (v/v) CO2 using culture medium recommended by the supplier. […] The Hsp90 inhibitors ganetespib and 17-AAG were synthesized at Synta Pharmaceuticals Corp. methyltrienolone (R1881) was purchased from Perkin-Elmer (Boston, Mass., USA).
as §3

VCaP cells = assay: CellTiter-Glo cell viability assay, VCaP
Method: as §4, §3

LNCaP cells = assay: CellTiter-Glo cell viability assay, LNCaP
Method: as §4, §3

22Rv1 cells = assay: CellTiter-Glo cell viability assay, 22Rv1; conditions: 22Rv1, 72 h, read-out: cytotoxicity IC50
Method: as §4, §3

DU145 cells [13] = assay: CellTiter-Glo cell viability assay, DU145; conditions: read-out: cytotoxicity IC50
Method: as §4, §3

[14] = Homo sapiens, 72 h, read-out: cytotoxicity IC50
[15] = read-out: cytotoxicity IC50, 72 h

CC(=O)O[C@@]12CO[C@@H]1C[C@H](O)[C@@]1(C)C(=O)[C@H](O)C3=C(C)[C@@H](OC(=O)[C@H](O)[C@@H](NC(=O)OC(C)(C)C)c4ccccc4)C[C@@](O)([C@@H](OC(=O)c4ccccc4)[C@H]21)C3(C)C [docetaxel, reference compound]
IC50 [1]: 1 nM

NC(=O)Nc1cc(-c2cccc(F)c2)sc1C(=O)N[C@H]1CCCNC1 [AZD-7762]
combination effect with ganetespib in killing cells (PC3 cells [2]): in synergy with ganetespib

CC(C)c1cc(-c2nnc(O)n2-c2ccc3c(ccn3C)c2)c(O)cc1O [Ganetespib, 3-(2,4-dihydroxy-5-isopropyl-phenyl)-4-(1-methyl-indol-5-yl)-5-hydroxy-[1,2,4] triazole]
tolerability of the regimen (PC3 tumor xenografts; 150 mg/kg weekly, nude mice): well tolerated
% T/C (PC3 tumor xenografts; once a week at 150 mg/kg for 4 weeks): 17%
% T/C (PC3 tumor xenografts; twice a week at 50 mg/kg for 4 weeks): 3%
IC50 fold less than 17-AAG [3]: 3-7 fold
time of destabilization of p-AKT/AKT ([4]; 100 nM): 18 h
time of loss of total and phosphorylated CDK1 ([4]; 100 nM): ≤ 24 h
time to measurable reduction in AR expression ([4]; 100 nM): ≤ 3 h
AR levels ([4]; 24 h, Western blot): potent and dose-dependent decrease
R1881 induction of PSA and TMPRSS2 mRNA [5]: significantly inhibited
dose sufficient to induce degradation of full-length AR, destabilization of p-AKT/AKT and apoptosis (cleaved PARP) [6]: ≤ 25 nM
androgen-increased full-length AR expression (full length AR): completely abrogated
full-length AR activity, luciferase assay (full-length AR activity): strongly inhibited
exposure required for significant reductions in p-EGFR expression [7]: 18 h
STAT3 signaling ([7]; DU145, 24 h, Western blot): completely abrogated
apoptotic cells, Annexin V staining (DU145 cells [8]): dose-dependent increase in apoptotic cells
cell cycle distribution (DU145 cells [9]): dose-dependent accumulation of cells in the G2/M phase
cell cycle distribution (PC3 cells [10]): dose-dependent accumulation of cells in the G2/M phase
time by which IGF-1R levels were reduced (PC3 cells (IGF-1R)): ≤ 6 h
expression of the variant (V7) receptor (V7 truncated AR isoform): neither inhibitor significantly altered expression
constitutive V7 activity, luciferase assay (constitutive V7 activity): less effective
highest non-severely toxic dose (HNSTD) [11]: 150 mg/kg
IC50 (PC3 cells [12]; Homo sapiens, PC-3, 72 h): 77 nM
IC50 (VCaP cells; [14]): 7 nM
IC50 (LNCaP cells; [14]): 8 nM
IC50 (22Rv1 cells; Homo sapiens): 2 nM
IC50 (DU145 cells [13]; Homo sapiens, DU-145, 72 h): 12 nM
IC50 [1]: 14 nM

C=CCNC1=C2C[C@@H](C)C[C@H](OC)[C@H](O)[C@@H](C)/C=C(\C)[C@H](OC(N)=O)[C@@H](OC)/C=C\C=C(/C)C(=O)NC(=CC1=O)C2=O [Compound 17-AAG, 17-AAG, reference compound]
exposure required for significant reductions in p-EGFR expression [7]: 18 h
apoptotic cells, Annexin V staining (DU145 cells [8]): comparable proportion of apoptotic cells
IC50 (PC3 cells [12]; PC3, 72 h): 246 nM
IC50 (VCaP cells; [15]): 2640 nM
IC50 (LNCaP cells; [15]): 265 nM
IC50 (22Rv1 cells): 1270 nM
IC50 (DU145 cells [13]; DU145, 72 h): 36 nM
